Measured values taken from US5885786A, “Methods for screening of substances for inhibition of multidrug resistance” (priority 1996, dated 1999).
pIC50: −log10 of the molar value. Entries after “also recorded” stand apart in the source; their conditions may differ. *1 amine or outer side, *2 acyl side, *3 side chain or, on linkers, in order; H or OH if unused. Where a SMILES comes first, the peptide text is derived from it. Bridges are numbered along the chain shown (N, C = ends). Roman numbers before positions name the chains, in order. [ ]: non-standard residue; d: D form. Actinocin(9to1) = Cc1c2oc3c(C)ccc(C(=O)[*:1])c3nc-2c(C(=O)[*:2])c(N)c1=O; NMeV = CN[C@H](C(=O)O)C(C)C; Sar = CNCC(=O)O

What was measured:
[1] = tested on: lipid-1 and -2 formation in MCF-7-AdrR cells; test: Effect of inhibitors of sphingolipid biosynthesis on lipid-1 and -2 formation; assay type: cell-based
Experimental: FIG. 5A, FIG. 5B, and FIG. 5C. Effect of inhibitors of sphingolipid biosynthesis on lipid-1 and -2 formation in MCF-7-AdrR cells. Cells, grown to near-confluency in 100×20 mm culture dishes, were radiolabeled with [^3 H]palmitic acid (FIG. 5A), or [^3 H]serine (FIG. 5B, FIG. 5C), in the presence or absence of 10 mM L-cycloserine (FIG. 5A), 50 μM FB1 (FIG. 5B), or 20 μM PPMP (FIG. 5C), for 24 h in RPMI-1640 medium containing 0.1% BSA. Extracted lipids were analyzed by TLC using solvent system II (FIG. 5A, FIG. 5B), or solvent system III (FIG. 5C) as described in Example I. Lac-cer, lactosylceramide.
The effects of various inhibitors of sphingolipid biosynthesis were investigated, using MCF-7-AdrR cells, labeled with either [^3 H]palmitic acid, or [^3 H]serine. The first enzymatic reaction in sphingoid base biosynthesis, catalyzed by serine:palmitoyltransferase, is the formation of 3-ketosphinganine from serine and palmitoyl-CoA (FIG. 1).

[2] = tested on: P388-adriamycin resistant cells; conditions: literature; cited from earlier work
acid sphingomyelinase = conditions: literature; cited from earlier work
[3] = tested on: glycosylation of ceramide in MCF-7-AdrR cells (UDP-glucose:ceramide glucosyltransferase); test: Glycosylation of C6-ceramide and natural glycosphingolipid synthesis, [3H]galactose labeling; assay type: cell-based
Experimental: FIG. 14A and FIG. 14B. Effect of Tamoxifen on Ceramide Synthesis and Glycosylation in MCF-7-AdrR Cells. FIG. 14: A Influence of tamoxifen on ceramide synthesis. The experiment was conducted as described in the legend to FIG. 13. Aliquots of the total lipid extract were based-hydrolyzed as described in Example I, separated by TLC using solvent system IV, and the resolved [^3 H]ceramide was quantitated by liquid scintillation spectrometry. Results are the mean±SEM of duplicate determinations from two separate experiments. FIG. 14B: Effect of tamoxifen on glycosylation of C6 -ceramide. Cells, in 100×20 mm culture dishes, were preincubated without or with 5.0 μM tamoxifen for 30 min, followed by incubation without or with 5.0 μM C6 -ceramide:BSA (prepared at a 1:1 molar ratio) for an additional 30 min. Cells were labeled thereafter with 1.0 μCi/ml [^3 H]galactose for 24 h. [3H]Galactose uptake was determined and found to be similar in all experimental points (1.0×10^6 cpm/dish). The total extracted lipid was applied to TLC separation and [^3 H]glycosphingolipids were analyzed as described in the legend to FIG. 10. The autoradiography of a representative chromatogram is shown.
In order to explore this notion, a short-chain ceramide analog with a 6-carbon N-acyl group (C6 -ceramide), was utilized as a substrate.

[4] = in vivo; cited from earlier work
[5] = cited from earlier work; for absorption (in words): oral or unspecified
[6] = tested on: OVCAR-3 (MDR ovarian carcinoma); conditions: clinically relevant concentrations (Rogan et al., 1984); cited from earlier work
[7] = cited from earlier work
[8] = tested on: glycosylceramide formation in MCF-7-AdrR cells; test: Inhibition of [3H]glycosylceramide formation in MCF-7-AdrR cells (TLC, liquid scintillation); assay type: cell-based; conditions: 5.0 μM drug, 24 h, MCF-7-AdrR, FIG. 11B; read-out: inhibition of glycosylceramide formation (cpm tritium)
Experimental: FIG. 9. […] Values represent the mean of determinations from three separate experiments, and are calculated as the percent glycosylceramide in the total lipid tritium extract.
FIG. 11A and FIG. 11B. […] FIG. 11: A Autoradiography. […] For autoradiography equal aliquots by volume of total lipid extract were applied to TLC plates. […] [^3 H]Glycosylceramide, visualized in panel A, was quantitated as described in the legend to FIG. 9. Each value represents mean±SEM of determinations from three separate experiments.
FIG. 12. […] [^3 H]Glycosylceramide was quantitated as described in the legend to FIG. 9. Results represents the mean±SEM of determinations from three separate experiments.
MCF-7 cells, grown in medium containing 10% FBS, were switched to media containing 5% FBS. Cell lipids were radiolabeled by adding [^3 H]serine (2.0 μCi/ml), [^3 H]palmitic acid (1.0 μCi/ml), or [^3 H]galactose (1.0 μCi/ml) to the culture medium for the indicated times. Other radiolabels can be substituted. Cells were then rinsed twice with PBS, pH 7.4, and 2 ml of ice-cold methanol containing 2% acetic acid was added. The cells were scraped free, transferred to glass test tubes (13×100 mm), and lipids were extracted by the addition of chloroform (2 ml) followed by water (2 ml). The resulting organic lower phase was withdrawn and evaporated under a stream of nitrogen. Lipids were resuspended in 100 μL of chloroform/methanol (1:1, v/v), and aliquots were applied to TLC plates.
Lipid analysis was carried out by TLC using solvent system I: chloroform/methanol/ammonium hydroxide (40:10:1, v/v) for glycosylceramide separation, solvent system II: chloroform/methanol/water (60:40:8, v/v) for sphingoglycolipid separation, or solvent system III: chloroform/methanol/acetic acid/water (50:30:7:3, v/v) for sphingomyelin separation. For determination of ceramides, an aliquot of the chloroform-soluble lipids was base-hydrolyzed in 0.1N KOH in methanol for 1 h at 37° C., lipids were re-extracted, and separated by TLC using solvent system IV: hexane/diethyl ether/formic acid (60:40:1, v/v).
Radiochromatograms were sprayed with EN^3 HANCE, and exposed for 3-7 days for autofluorgraphy. TLC areas, aligned with bands on the autoradiographs or with iodine-stained commercial lipid standards, were scraped from the plate. Water (0.5 ml) was added to the plate scrapings followed by 4.5 ml of EcoLume counting fluid, and the samples were quantitated by liquid scintillation spectrometry.

MCF-7-AdrR cells = test: Cell proliferation (MTS) assay: adriamycin toxicity and chemosensitization; conditions: for effect on adriamycin toxicity / chemosensitization (in words): 5.0 μM tested drug + adriamycin, 72 h, FIG. 15A, 16B
Source text: FIG. 15A and FIG. 15B. […] FIG. 15B: Glycosylceramide levels in MDR Cells following drug treatment. […] In order to avoid differences in [^3 H]glycosylceramide values which account for cell death, the same amount of total radioactive lipid from each sample was applied to TLC separation.
FIG. 16A and FIG. 16B. […] FIG. 16A: Effect of PPMP on cellular glycosylceramide levels. […] [^3 H]Glycosylceramide was quantitated as described in the legend to FIG. 9.
Vehicle (acetone, ethanol) was always added to control (minus drug) wells. The cytotoxic activity of a drug was determined using the Promega CellTiter 96™ AQueous MTS cell proliferation assay kit. Each experimental point was performed in six replicates. MTS/PMS solution (20 μl/well) was aliquoted into all wells, and the cells were incubated for 2-3 h, or until an O.D. of 0.9-1.0 was obtained as a highest reading. Thereafter, absorbence at 490 nm was recorded using an ELISA plate reader (Molecular Devices, San Diego, Calif.).

[9] = cited from earlier work; remark: listed apart in the source
[10] = tested on: glycosylceramide synthesis in MCF-7-AdrR cells; test: Effect of PPMP on cellular glycosylceramide levels, [3H]serine 24 h; assay type: cell-based; conditions: FIG. 16A
Source text: FIG. 16A and FIG. 16B. […] FIG. 16A: Effect of PPMP on cellular glycosylceramide levels.

P-glycoprotein = conditions: literature; cited from earlier work
[11] = 5.0 μM C6-ceramide, FIG. 14B, […]
[12] = 10 mM L-cycloserine, [3H]palmitic acid, FIG. 5A

Q: With CCCCC(C)C(OC(=O)CC(CC(=O)O)C(=O)O)C(CC(C)CC(O)CCCCC(O)CC(O)C(C)N)OC(=O)CC(CC(=O)O)C(=O)O (stereo not shown) [FB1] as the compound, how does the “level of both lipid-1 and -2 (in words)” value ([1]; 50 μM FB1, [3H]serine, FIG. 5B) read?
A: profound reduction

Q: Which results are given for COc1ccc(CCN(C)CCCOc2ccc(S(=O)(=O)c3c(C(C)C)cn4ccccc34)cc2)cc1OC [SR33557]?
A: reversal of MDR / adriamycin resistance in P388 cells (in words) [2]: reverse MDR; inhibition of acid sphingomyelinase (in words) (acid sphingomyelinase): inhibition of acid sphingomyelinase

Q: What does the source list for CCCCCCCCCCCCC/C=C/[C@@H](O)[C@H](CO)NC(=O)CCCCC [C6 -ceramide]?
A: natural glycosylceramide level (in words) ([3]; 5.0 μM C6-ceramide, FIG. 14B): not altered; reduction of ganglioside synthesis [3, 11]: 35%; reduction of natural lactosylceramide synthesis [3, 11]: 33%; formation of C6-glycosylceramide (in words) ([3]; cells incubated with C6-ceramide): clearly visible

Q: With CC[C@]1(O)C[C@H]2CN(CCc3c([nH]c4ccccc34)[C@@](C(=O)OC)(c3cc4c(cc3OC)N(C=O)[C@H]3[C@@](O)(C(=O)OC)[C@H](OC(C)=O)[C@]5(CC)C=CCN6CC[C@]43[C@@H]65)C2)C1 [Vincristine] as the compound, how does the “tolerability / toxicity (in words)” value [4] read?
A: sever neurological toxicity

Q: And the “distribution in blood cells (in words)” value ([5]; in vivo)?
A: extensively concentrated in platelets

Q: What about the “plasma protein binding (in words)” value ([5]; in vivo) of the same compound?
A: bind to plasma proteins

Q: And the “absorption (in words)” value [5]?
A: Unpredictable absorption

Q: With N.N.[Cl][Pt][Cl] [cisplatin] as the compound, how does the “resistance of OVCAR-3 to the drug (in words)” value [6] read?
A: resistant

Q: What about the “absorption (in words)” value [5] of the same compound?
A: not absorbed orally

Q: For O=NN(CCCl)C(=O)NCCCl [Carmustine, 1,3bis (2-chloroethyl)-1-nitrosourea], which “solubility in water (in words)” value [7] is on record?
A: poorly soluble in water

Q: For O=NN(CCCl)C(=O)NC1CCCCC1 [Lomustine, 1-(2-chloro-ethyl)-3-cyclohexyl-1 nitrosourea], which “ionization (in words)” value ([7]; physiological pH) is on record?
A: relatively unionized

Q: And the “solubility in water (in words)” value [7]?
A: relatively insoluble

Q: What about the “tissue levels vs plasma levels (in words)” value ([5]; 15 minutes after intravenous administration) of the same compound?
A: comparable to plasma levels

Q: What about the “excretion of radioactivity as degradation products (in words)” value ([5]; within 24 hours, oral 30 mg/m^2 to 100 mg/m^2) of the same compound?
A: about half

Q: With CCC(=C(c1ccccc1)c1ccccc1)c1ccccc1 [triphenylbutene] as the compound, how does the inhibition at 5 µM [8] read?
A: 13%

Q: What about the “effect on adriamycin toxicity / chemosensitization (in words)” value (MCF-7-AdrR cells) of the same compound?
A: no effect

Q: For N[C@H]1CONC1=O [L-cycloserine], which “lipid-1 formation (in words)” value [1, 12] is on record?
A: almost complete disappearance

Q: And the “lipid-2 formation (in words)” value [1, 12]?
A: major inhibition

Q: With CO[C@@]12[C@H](COC(N)=O)C3=C(C(=O)C(C)=C(N)C3=O)N1C[C@@H]1N[C@@H]12 [Mitomycin] as the compound, how does the “fraction of dose excreted unchanged in the urine” value ([9]; human, in vivo, iv) read?
A: Approximately 10%

Q: What about the “clearance from the serum (in words)” value ([9]; intravenous) of the same compound?
A: rapidly cleared

Q: For CCCCCCCCCCCCCCCC(=O)NC(CN1CCOCC1)C(O)c1ccccc1 (stereo not shown) [PPMP], which “ceramide levels (in words)” value ([1]; 20 μM PPMP, FIG. 5C) is on record?
A: elevation in ceramide levels

Q: And the “lactosylceramide and gangliosides (in words)” value ([1]; 20 μM PPMP, FIG. 5C)?
A: concomitant reduction

Q: What about the “formation of lipid-1 and -2 (in words)” value ([1]; 20 μM PPMP, [3H]serine, FIG. 5C) of the same compound?
A: blocked completely

Q: What about the inhibition at 5 µM ([10]; 24 h, 5.0 μM PPMP, read-out: maximal reduction in cellular glycosylceramide levels) of the same compound?
A: 86%

Q: What about the pIC50 ([10]; PPMP, [3H]serine 24 h, read-out: IC50 for inhibition of glycosylceramide formation) of the same compound?
A: 6.05

Q: And the “effect on adriamycin toxicity / chemosensitization (in words)” value (MCF-7-AdrR cells)?
A: clear sensitization; also recorded: effectively decreased cell survival

Q: And the “effect of the substance alone on cell survival (in words)” value (MCF-7-AdrR cells; MCF-7-AdrR, alone)?
A: no influence itself on cell viability; also recorded: no effect

Q: Which “reversal of MDR / adriamycin resistance in P388 cells (in words)” value [2] does the source give for COc1cc(C[C@H]2c3cc(OC)c(OC)cc3CCN2C)c(Oc2cc3c(cc2OC)-c2c(OC)c(OC)cc4c2[C@H](C3)N(C)CC4)cc1OC [thaliblastine] here?
A: reverses adriamycin resistance

Q: What about the “binding to P-glycoprotein (in words)” value (P-glycoprotein) of the same compound?
A: binds to P-glycoprotein

Q: Which “excreted into the urine” value ([5]; in vivo, iv) does the source give for Cc1c2oc3c(C)ccc(C(=O)N[C@@H]4C(=O)N[C@H](C(C)C)C(=O)N5CCC[C@H]5C(=O)N(C)CC(=O)N(C)[C@@H](C(C)C)C(=O)O[C@@H]4C)c3nc-2c(C(=O)N[C@@H]2C(=O)N[C@H](C(C)C)C(=O)N3CCC[C@H]3C(=O)N(C)CC(=O)N(C)[C@@H](C(C)C)C(=O)O[C@@H]2C)c(N)c1=O [Actinomycin D] (I: T[dV]P[Sar][NMeV] / II: T[dV]P[Sar][NMeV]; ester I:1-I:C, II:1-II:C; linker I:N-II:N via Actinocin(9to1)) here?
A: 10%

Q: What about the half-life ([5]; in vivo, iv) of the same compound?
A: about 36 hr

Q: And the “blood-brain barrier passage (in words)” value ([5]; in vivo)?
A: does not pass the blood-brain barrier

Q: What about the “dose excreted intact into the bile (in words)” value ([5]; in vivo) of the same compound?
A: Half of the dose
